Source: ChEMBL document CHEMBL3507680, “University of Dundee, Gates Library screen for HepG2 cell viability”

experiment: Human HepG2 cell viability assay in 384 well format; format: toxicity, cell-based; set-up: dose 125 nL, time 70.5 hour; concentration not given beside the values; details: HepG2 cells, read-out: Inhibition

| Compound | cytotoxicity at 70.5 h [%] |
| --- | --- |
| NC(=O)c1cnc(-c2ccccc2)nc1CCNC(=O)CN1CCCC1 | 9.13 |
| COCCN1CCCC1(C)c1nc(C)cc(N)n1 (centres undefined) | 0.23 |
| O=C(C1CC1)N1CCC(O)(CN2CCN(c3ccccc3)CC2)C1 (centres undefined) | -4.63 |
| Cc1cc(-c2ccccc2C(=O)O)nc(C2CCCN2S(C)(=O)=O)n1 (centres undefined) | -1.81 |
| Cc1nn(C)cc1CN(Cc1ccccn1)Cc1ccccc1Cl | 4.5 |
| Cc1cc(C)nc(C2CCCN2C(=O)c2coc(C)n2)n1 (centres undefined) | 23 |
| Cc1cc(CN2CCc3nc(-c4ccncc4)nc(O)c3CC2)c(C)s1 | -7.8 |
| CC(C)C(C(N)=O)c1cccc(Cl)c1 (centres undefined) | -3.86 |
| Cn1cc(S(=O)(=O)Nc2ccc3[nH]c(C4CCC4)nc3c2)cn1 | 0.665 |
| CNC(=O)C(c1cccc(Cl)c1)C(C)C (centres undefined) | 17.1 |
| Cc1ccccc1-n1ccnc1S(=O)(=O)Cc1nsc(N(C)C)n1 | -11 |
| Cc1ccnc2c1NC(=O)CN2C(=O)CCC(F)(F)F | -6.32 |
| CNC(=O)Cc1ccc(NC(=O)NCC(C)c2ncc(C)s2)cc1 (centres undefined) | -12.5 |
| CCOCCOC(C)C(=O)Nc1nccn1Cc1ccccc1 (centres undefined) | -15 |
| Cc1ccc(C)c(CC(=O)NC2CCC(N3C(=O)CCC3=O)CC2)c1 (centres undefined) | -1.42 |
| O=C(NCCn1ccnc1)C1COCC(=O)N1Cc1ccccc1 (centres undefined) | 9.74 |
| CC(C#N)NS(=O)(=O)c1cccc(C(C)C)c1 (centres undefined) | -15.4 |
| CCC1CCCCN1C(=O)Cn1cnc(C#N)n1 (centres undefined) | -4.5 |
| CC(C)OCCS(=O)(=O)N1CCN(Cc2cccn2C)CC1 | -8.85 |
| CN(C)S(=O)(=O)N(C)C(c1cccnc1)c1ccc(F)c(F)c1 (centres undefined) | 14.4 |
| COCC(=O)N1CCN(C(C)C(=O)NC(C)C)CC1 (centres undefined) | 5.85 |
| CC(C)(C)c1cc(NC(=O)CN(Cc2ccco2)Cc2cccs2)on1 | 4.01 |
| CC(C)(C)c1cc(NC(=O)CN(Cc2cccs2)Cc2cccs2)on1 | -8.34 |
| CCOC(=O)N1CCC(C(=O)Nc2nnc(C(F)(F)F)[nH]2)CC1 | 5.31 |

| Compound | cytotoxicity at 70.5 h [%] |
| --- | --- |
| CC(=O)N1CCC(C(=O)Nc2nnc(C(F)(F)F)[nH]2)CC1 | -8.53 |
| CN(CCCOc1ccccc1)S(=O)(=O)N1CCOCC1 | -12.8 |
| CN(CCOc1ccc(F)cc1)S(=O)(=O)N1CCOCC1 | -9.68 |
| CC(=O)NCCNC(=O)c1sccc1Br | -16.2 |
| CCOc1nnc(CN2CCC(c3cc4ccccc4[nH]3)CC2)s1 | -5.08 |
| CC(c1ccco1)N(C(=O)CNc1ccc(C#N)cc1)C1CC1 (centres undefined) | 4.38 |
| CC(C1CC1)N(C(=O)CNc1ccc(C#N)cc1)C1CC1 (centres undefined) | -6.5 |
| c1nc2c(c(N3CCOC(Cn4cncn4)C3)n1)CCC2 (centres undefined) | -7.61 |
| c1nc2c(c(N3CCCC(Cn4cncn4)C3)n1)CCC2 (centres undefined) | -7.36 |
| O=C(NCCNC(=O)C1CC1)c1sccc1Br | -6.03 |
| CC(C)COCCC(=O)Nc1cc(-n2nnnc2C2CC2)ccc1F | -8.14 |
| CCOc1ccccc1CCNC(=O)NCC(O)c1ccsc1 (centres undefined) | -0.583 |
| CC(C)C(C#N)N1CCN(C(=O)c2cc(-c3ccccn3)no2)CC1 (centres undefined) | 3.13 |
| CCCS(=O)(=O)NC(=O)c1ccc(-n2nc(C)cc2C)cc1 | -6.42 |
| CN1CCOC(C(=O)Nc2nc(-c3ccccc3F)n[nH]2)C1 (centres undefined) | -6.97 |
| c1cnn(CC2CN(c3ncnc4c3CCC4)CCO2)c1 (centres undefined) | -9.89 |
| CC(NC(=O)c1ccoc1)C(=O)N(C)Cc1ccc(O)cc1 (centres undefined) | 3.58 |
| Cc1cnn(C2CN(C(C)c3nc(-c4ccccc4)no3)C2)c1 (centres undefined) | -8.84 |
| COc1ccnc(N(C)Cc2csc(C)n2)n1 | -6.22 |
| CCC1CCCCCN1C(=O)c1coc(S(=O)(=O)N(C)C)c1 (centres undefined) | -12.3 |
| N#Cc1c(CN2CCCCC2Cn2cncn2)cn2ccccc12 (centres undefined) | 5.14 |
| COc1ccc(COCC(O)CSc2ccc(NC(C)=O)cc2)cc1 (centres undefined) | -10.5 |
| CC(=O)Nc1ccc(SCC(O)COCc2ccco2)cc1 (centres undefined) | -12 |
| O=C(NCc1ccnc(OCC(F)(F)F)c1)NCC1CCCO1 (centres undefined) | 0.67 |

| Compound | cytotoxicity at 70.5 h [%] |
| --- | --- |
| CC(CN1CCOCC1)NC(=O)Nc1cccnc1-n1cccn1 (centres undefined) | -14 |
| O=C(NCCN1CCCCCC1=O)Nc1cccnc1-n1cccn1 | 23.5 |
| CC(=O)NCCNC(=O)c1nc(C2CC2)n(-c2ccccc2Cl)n1 | -13.6 |
| CNC(=O)Cn1ccc2ccc(NC(=O)C(C)CSC)cc21 (centres undefined) | -5.03 |
| Cn1cc(CCC(=O)NCc2ccccc2OC(C)(C)C)cn1 | 2.39 |
| Cc1nc(CCCC(=O)Nc2cccc(N3CCNC3=O)c2)cs1 | 0.608 |
| O=C(NCc1ccnc(OCC(F)(F)F)c1)NCC1COCCO1 (centres undefined) | -6.7 |
| COc1ccc(-n2cc(CNC(=O)c3ccc[nH]3)nn2)cc1 | -2.18 |
| O=S(=O)(c1cncc(F)c1)N1CCSC2(CCCCC2)C1 | -10.2 |
| Cc1ccc(C2CN(CCCC#N)CCO2)c(C)c1 (centres undefined) | -2.64 |
| Cn1cc(CNCC(c2ccc(Cl)cc2)n2cccn2)cn1 (centres undefined) | -5.62 |
| Cc1noc(CN(CCO)Cc2cc(Br)ccc2F)n1 | -1.67 |
| N#Cc1c(CN2CCCC2Cn2cccn2)cn2ccccc12 (centres undefined) | 18.8 |
| CC(C)(C)c1nc(CN(CCO)Cc2cc(Br)ccc2F)no1 | -3.27 |
| COCCN1CC(=O)N(C(C)C)C(C)(C)C1 | 0.521 |
| Cc1ccc(C2CN(CCCS(=O)(=O)C(C)C)CCO2)c(C)c1 (centres undefined) | -2.16 |
| Cc1noc(CNC(=O)NCC2(C)CCCc3ccccc32)n1 (centres undefined) | -8.6 |
| Nc1cccnc1N1CCC(O)CC1 | -1.82 |
| COc1ccc(Cl)cc1CN1CC(n2cccn2)C1 | -4.9 |
| CC(SCCC(=O)NC(N)=O)c1c(F)cccc1F (centres undefined) | -10.5 |
| Cc1noc(C)c1S(=O)(=O)N(CC(N)=O)CC(C)C | -20.2 |
| CC(=O)N1CCCC1C(=O)N1CCC(=Cc2cccc(F)c2)CC1 (centres undefined) | -14.8 |
| N#CCCN(Cc1ccco1)C(=O)CCCNC(=O)c1ccccc1 | -15.9 |
| Cc1cccc(C(=O)N2CCN(C)CC2)c1NC(=O)c1ccncc1 | 17.6 |

| Compound | cytotoxicity at 70.5 h [%] |
| --- | --- |
| O=C(CN1CCc2cncnc2C1)NC(C1CC1)C1CC1 | -12.3 |
| Cc1cccc(C(=O)N2CCSCC2)c1NC(=O)c1cccnc1 | -7.35 |
| CCC(C)(C)NC(=O)COC(=O)c1cc(C)ccc1NC(=O)N(C)C | -7.98 |
| COC(=O)CN(C(=O)c1ccco1)c1cccc(F)c1 | 16.3 |
| CN(C(=O)c1ccc(NC(=O)c2cc[nH]n2)cc1)C1CCCCC1 | -9.38 |
| Cc1cccc(C(=O)N2CCSCC2)c1NC(=O)c1ccsc1 | -8.36 |
| Cn1ccc(C(=O)Nc2nc(-c3ccc(Cl)cc3)n[nH]2)cc1=O | 24.6 |
| Cc1noc(CCCC(=O)NCC(c2ccco2)N2CCCC2)n1 (centres undefined) | -14.9 |
| CCc1nnsc1C(=O)NCC1CN(CC(C)C)CCO1 (centres undefined) | 22.5 |
| Cc1ccc(C(NC(=O)CN2CCc3cncnc3C2)C2CC2)cc1 (centres undefined) | -13.1 |
| CSCC(C)N(C)C(=O)CN1CCN(c2ccccn2)CC1 (centres undefined) | 17.8 |
| O=C(CN1CCc2cncnc2C1)NC(c1ccccc1)C1CC1 (centres undefined) | -2.84 |
| CC(=O)N1CCCC(C(=O)N2CCC(=Cc3cccc(F)c3)CC2)C1 (centres undefined) | -9.9 |
| CCOc1ccccc1C(N)CC(C)C (centres undefined) | -0.686 |
| CC(c1ccccn1)N(C)C(=O)CN1CCN(c2ccccn2)CC1 (centres undefined) | -11.5 |
| COc1ccc(CNC(=O)C(NC(=O)Cc2ccccc2)C(C)C)cn1 (centres undefined) | 30.6 |
| NC(=O)COc1ccc(C2NC(=O)CN2Cc2ccc(Br)cc2)cc1 (centres undefined) | -14.8 |
| COc1cccnc1NC(=O)c1ccc(COCC(F)(F)F)cc1 | -8.83 |
| N#Cc1ccc(CCC(=O)N2CCC(CN3CCOCC3)CC2)cc1 | 23.1 |
| Cc1cc(C2NC(=O)CN2Cc2ccc(Br)cc2)cc(C)c1O (centres undefined) | 0.666 |
| Cc1n[nH]c(NC(=O)c2ccc(COCC(F)(F)F)cc2)c1C | -10.3 |
| COc1ccc(CNC2CCc3ncnn3C2)cc1OCCCC#N (centres undefined) | -9.41 |
| COc1ccc(CNC2CCC(O)CC2)cc1OCCCC#N (centres undefined) | -5.82 |
| CNC(=O)CS(=O)(=O)NC1CCC(C)CC1 (centres undefined) | -15.8 |

| Compound | cytotoxicity at 70.5 h [%] |
| --- | --- |
| CC(Oc1cc(Cl)cc(Cl)c1)C(=O)NCCS(N)(=O)=O (centres undefined) | -4 |
| N#CCCN(C(=O)CCc1cccnc1)c1ccc2c(c1)OCCO2 | -11.1 |
| Cc1noc(C)c1CNC(=O)Nc1ccc(N2CCOC(C)C2)cc1 (centres undefined) | -13.8 |
| Cc1nc(CCCNC(=O)c2c(F)cc(F)cc2F)n[nH]1 | -7.17 |
| Cc1ccc(C(NC(=O)C2CC2)c2cccc(S(C)(=O)=O)c2)cc1 (centres undefined) | -4.47 |
| Cc1noc(C)c1CNC(=O)Nc1ccc(N2CCOC2=O)cc1 | -17.5 |
| Cc1cc(C(=O)NC(C)CC(=O)c2cccs2)n(C)n1 (centres undefined) | -12.7 |
| Cc1c(C(=O)NC2CCCOc3cc(Cl)ccc32)cnn1C (centres undefined) | -15.2 |
| Cc1nc(C)c(S(=O)(=O)NC(=O)c2ccsc2)s1 | -7 |
| COc1ccc(CNC2CCc3ncnn3C2)cc1OCC1CC1 (centres undefined) | -14.4 |
| CC(C)CC(NCc1cccs1)c1ccccn1 (centres undefined) | -13.2 |
| CCC(=O)N(c1ccc(C(=O)OC)cc1C)C(C)C | -3.07 |
| COc1ccc(NC(=O)Cc2c(C)nn(C)c2C)cc1F | 7.37 |
| CC(C)CNC(=O)Nc1cccc(OCC#N)c1 | -7.35 |
| CCC(C)NC(=O)Nc1cccc(OCC#N)c1 (centres undefined) | -12.4 |
| CCC(C)NC(=O)Nc1cccc(OCCCC#N)c1 (centres undefined) | -8.47 |
| CC(C)c1nc(CC(=O)Nc2cnccc2O)cs1 | -3.73 |
| CC(C)(C)c1nc(CC(=O)Nc2cnccc2O)cs1 | -2.57 |
| O=C(Nc1ccccn1)c1ccc(F)c(S(=O)(=O)NC2CC2)c1 | -16.8 |
| CC(C)N1CCC(NC(=O)c2cn(-c3ccc(F)cc3)nn2)C1 (centres undefined) | -16.5 |
| O=C(CCc1ccsc1)NCC1CCN(C2CC2)C1 (centres undefined) | -7.4 |
| COc1ccc(Br)c(NC(=O)NCc2cnn(C)c2)c1 | -13.3 |
| Cc1ccccc1OC1CCN(CC(=O)Nc2cnn(C)c2C)CC1 | -2.68 |
